# Test results reported in paper PMC2998338 (Neuropharmacology, 2010).
# Where “and” joins values, the source holds several entries; their conditions need not be identical. Equal entries are not always repeated. Where two headings read alike, the source gives them in different places.
# Columns and labels:
# male ICR mice [1] = assay: Body temperature; type: in vivo
# male ICR mice [2] = assay: Tail-flick test, compound alone; type: in vivo; details: for ED50 Tail-flick, percent effect at the individual dose: tested 15 min after injection; for change of tail-flick latencies by the compound itself: highest dose tested
# rat α7 nAChRs = rat α7 nAChRs (Rattus norvegicus, UniProt Q05941); details: for α7 nH: Hill coefficient, mean
# α7 nAChRs = α7 nAChRs (Rattus norvegicus, UniProt Q05941); assay: [125I]IodoMLA binding assay, rat cerebral cortex; details: read-out: Ki, [125I]MLA binding sites, 70 pM [125I]iodoMLA
# male ICR mice [3] = assay: Hot-plate test, antagonism of nicotine-induced antinociception; type: in vivo; details: at 10 mg/kg s.c., 15 min before nicotine
# neuronal nAChRs = assay: Whole-cell patch-clamp, time course of inhibition; type: cell-based; details: co-application with ACh following pre-exposure
# male ICR mice [4] = assay: Hot-plate test, compound alone; type: in vivo; details: tested 15 min after injection
# male ICR mice [5] = assay: Body temperature, antagonism of nicotine-induced hypothermia; type: in vivo; details: for AD50 Body temperature, percent effect at the individual dose: 15 min before nicotine, tested 30 min after nicotine; for block of nicotine-induced hypothermia: mice
# male ICR mice [6] = assay: Tail-flick test, antagonism of nicotine-induced antinociception; type: in vivo; details: s.c., 15 min before nicotine 2.5 mg/kg, tested 5 min after nicotine; (confidence limits)
# rat α3β4 nAChRs = rat α3β4 nAChRs (Rattus norvegicus, UniProt P04757+P12392); details: for α3β4 nH: Hill coefficient, mean
# [7] = target: human α4β2 neuronal nAChRs (Homo sapiens, UniProt P17787+P43681); details: for α4β2 nH: Hill coefficient, mean
# NMDA receptors = details: read-out: IC50, NMDA receptors; ref MacDonald et al., 1990; Morris et al., 2005; cited from earlier work
# [8] = holding potential −100 to +60 mV, n=3
# Chain of rat α3β4 nAChRs (P04757 26-499): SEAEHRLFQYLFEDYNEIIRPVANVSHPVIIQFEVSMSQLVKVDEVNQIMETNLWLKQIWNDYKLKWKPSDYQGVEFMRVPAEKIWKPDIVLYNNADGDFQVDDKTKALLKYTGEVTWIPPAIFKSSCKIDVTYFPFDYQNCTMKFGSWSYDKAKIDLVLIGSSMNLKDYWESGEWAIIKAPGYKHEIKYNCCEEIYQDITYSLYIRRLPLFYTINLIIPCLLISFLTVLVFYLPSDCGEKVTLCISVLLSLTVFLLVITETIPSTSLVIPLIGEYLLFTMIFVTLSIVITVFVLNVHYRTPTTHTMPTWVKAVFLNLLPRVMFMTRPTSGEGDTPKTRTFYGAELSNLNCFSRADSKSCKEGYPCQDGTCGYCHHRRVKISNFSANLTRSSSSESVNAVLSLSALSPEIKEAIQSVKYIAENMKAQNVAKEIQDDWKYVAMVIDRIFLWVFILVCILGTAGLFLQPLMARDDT
# Chain of rat α3β4 nAChRs (P12392 21-495): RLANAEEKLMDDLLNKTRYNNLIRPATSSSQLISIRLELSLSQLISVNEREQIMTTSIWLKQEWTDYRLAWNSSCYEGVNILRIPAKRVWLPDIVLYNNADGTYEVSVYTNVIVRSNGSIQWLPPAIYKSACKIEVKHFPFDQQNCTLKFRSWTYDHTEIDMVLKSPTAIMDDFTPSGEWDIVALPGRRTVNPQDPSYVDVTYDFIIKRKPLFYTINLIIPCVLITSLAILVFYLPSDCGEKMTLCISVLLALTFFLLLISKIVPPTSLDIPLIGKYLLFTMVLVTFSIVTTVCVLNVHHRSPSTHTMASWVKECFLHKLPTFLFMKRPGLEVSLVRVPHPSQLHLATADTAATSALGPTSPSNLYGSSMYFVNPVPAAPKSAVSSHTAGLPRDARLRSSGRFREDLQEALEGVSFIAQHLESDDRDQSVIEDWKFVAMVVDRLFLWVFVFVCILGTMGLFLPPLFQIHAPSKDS
# Chain of rat α7 nAChRs (Q05941 23-502): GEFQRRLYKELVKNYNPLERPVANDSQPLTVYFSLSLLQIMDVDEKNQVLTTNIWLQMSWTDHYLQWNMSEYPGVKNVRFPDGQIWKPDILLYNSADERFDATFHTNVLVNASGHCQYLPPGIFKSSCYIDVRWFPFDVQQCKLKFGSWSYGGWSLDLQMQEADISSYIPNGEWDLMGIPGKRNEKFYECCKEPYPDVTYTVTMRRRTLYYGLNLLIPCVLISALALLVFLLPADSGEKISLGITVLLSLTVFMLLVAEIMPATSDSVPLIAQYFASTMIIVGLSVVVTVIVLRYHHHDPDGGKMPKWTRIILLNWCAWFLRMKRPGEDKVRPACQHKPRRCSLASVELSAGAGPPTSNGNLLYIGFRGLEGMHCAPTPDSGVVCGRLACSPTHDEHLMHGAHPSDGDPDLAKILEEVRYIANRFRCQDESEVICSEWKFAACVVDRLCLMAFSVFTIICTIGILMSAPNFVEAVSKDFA
# Chain of human α4β2 neuronal nAChRs (P43681 29-627 limits assumed): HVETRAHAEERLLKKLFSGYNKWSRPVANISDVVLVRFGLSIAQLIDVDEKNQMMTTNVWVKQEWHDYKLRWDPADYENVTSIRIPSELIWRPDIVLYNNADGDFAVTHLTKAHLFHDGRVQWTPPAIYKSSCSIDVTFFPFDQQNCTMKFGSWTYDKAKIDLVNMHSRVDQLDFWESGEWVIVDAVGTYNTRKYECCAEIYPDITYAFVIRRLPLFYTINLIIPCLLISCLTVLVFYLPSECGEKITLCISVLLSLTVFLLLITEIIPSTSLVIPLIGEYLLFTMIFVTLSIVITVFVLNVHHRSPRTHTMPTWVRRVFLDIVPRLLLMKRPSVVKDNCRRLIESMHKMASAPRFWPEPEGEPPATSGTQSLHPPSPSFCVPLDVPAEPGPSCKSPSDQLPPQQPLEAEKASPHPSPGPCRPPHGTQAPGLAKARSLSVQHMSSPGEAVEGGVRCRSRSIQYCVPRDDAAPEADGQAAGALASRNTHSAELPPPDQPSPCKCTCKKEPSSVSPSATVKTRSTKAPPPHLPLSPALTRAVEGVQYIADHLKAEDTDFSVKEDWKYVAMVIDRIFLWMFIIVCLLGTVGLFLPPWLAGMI
# Chain of human α4β2 neuronal nAChRs (P17787 26-502): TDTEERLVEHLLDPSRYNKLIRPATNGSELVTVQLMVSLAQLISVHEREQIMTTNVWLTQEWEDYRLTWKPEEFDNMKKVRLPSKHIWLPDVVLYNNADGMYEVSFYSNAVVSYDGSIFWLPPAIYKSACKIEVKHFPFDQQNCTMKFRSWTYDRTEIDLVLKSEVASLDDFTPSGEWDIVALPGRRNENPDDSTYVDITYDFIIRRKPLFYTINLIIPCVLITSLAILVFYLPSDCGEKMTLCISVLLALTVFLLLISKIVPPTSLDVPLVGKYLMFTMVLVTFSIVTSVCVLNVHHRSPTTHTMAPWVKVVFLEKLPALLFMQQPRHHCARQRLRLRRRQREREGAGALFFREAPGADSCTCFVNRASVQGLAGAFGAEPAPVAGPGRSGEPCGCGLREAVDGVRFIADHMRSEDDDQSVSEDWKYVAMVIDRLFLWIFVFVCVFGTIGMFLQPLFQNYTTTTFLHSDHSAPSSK
# Chain of α7 nAChRs (Q05941 23-502): as the sequence (Q05941 23-502) above
structure (smiles),measurement,setting,value
"CN(C)c1ccc2c(c1)CC1CC(Cc3ccccc3)N(C)C21 (stereo not drawn) [HDMP, 1,2,3,3a,4,8b-hexahydro-2-benzyl-6-N,N-dimethylamino-1-methylindeno[1,2,-b]pyrrole]","ED50 Hypothermia, percent effect at the individual dose",male ICR mice [1]; at 10 mg/kg s.c.,0%@10
same,"ED50 Tail-flick, percent effect at the individual dose",male ICR mice [2]; at 10 mg/kg s.c.,2%@10
same,change of tail-flick latencies by the compound itself,male ICR mice [2],did not significantly change
same,"inhibition of whole-cell currents, α7","rat α7 nAChRs; 0.1 μM, −80 mV, example cell",55%
same,α7 nH,rat α7 nAChRs,0.73
same,fold more potent than PCP in inhibition of α7 nAChRs,rat α7 nAChRs; based on IC50 values 1.25 and 0.07 μM,18 fold
same,"voltage-dependence of inhibitory effect, α7",rat α7 nAChRs; [8],voltage-independent
same,fold more potent at α7 than at α3β4 nAChRs,rat α7 nAChRs; ratio of patch-clamp IC50s,414 fold
same,fold more potent at α7 than at α4β2 nAChRs,rat α7 nAChRs; ratio of patch-clamp IC50s,357 fold
same,Ki,α7 nAChRs,> 10 µM
same,"AD50 Hot-Plate, percent effect (inhibition) at the individual dose",male ICR mice [3],20%@10
same,time in which the inhibitory effect develops,neuronal nAChRs,40 to 60 s
same,"ED50 Hot-Plate, percent effect at the individual dose",male ICR mice [4]; at 10 mg/kg s.c.,8%@10
same,"AD50 Body temperature, percent effect at the individual dose",male ICR mice [5]; at 10 mg/kg s.c.,0%@10
same,block of nicotine-induced hypothermia,male ICR mice [5],failed to block
same,AD50 Tail-flick,male ICR mice [6],0.008 (0.004–0.015) mg/kg
same,"effect on whole-cell currents, α3β4","rat α3β4 nAChRs; 0.1 μM, −80 mV, example cell",no effect
same,α3β4 nH,rat α3β4 nAChRs,1.06
same,fold less potent than PCP in inhibition of α3β4 nAChR function,rat α3β4 nAChRs; based on IC50s 28.98 and 6.35 μM,4.6 fold
same,"voltage-dependence of inhibitory effect, α3β4",rat α3β4 nAChRs; [8],voltage-independent
same,IC50,rat α3β4 nAChRs; read-out: α3β4 IC50,29 µM
same,"effect on whole-cell currents, α4β2","[7]; 0.1 μM, −80 mV, example cell",no effect
same,α4β2 nH,[7],1.15
same,"voltage-dependence of inhibitory effect, α4β2",[7]; [8],voltage-independent
same,IC50,[7]; read-out: α4β2 IC50,25.1 µM
"c1ccc(C2(N3CCCCC3)CCCCC2)cc1 [PCP, phencyclidine, reference compound]","ED50 Hypothermia, percent effect at the individual dose",male ICR mice [1]; at 5 mg/kg s.c.,5%@5
same,"ED50 Tail-flick, percent effect at the individual dose",male ICR mice [2]; at 5 mg/kg s.c.,6%@5
same,change of tail-flick latencies by the compound itself,male ICR mice [2],did not significantly change
same,α7 nH,rat α7 nAChRs,0.97
same,fold more potent at α7 than at α4β2 nAChRs,rat α7 nAChRs; ratio of patch-clamp IC50s,23 fold
same,IC50,NMDA receptors,~1 µM
same,"ED50 Hot-Plate, percent effect at the individual dose",male ICR mice [4]; at 5 mg/kg s.c.,5%@5
same,"AD50 Body temperature, percent effect at the individual dose",male ICR mice [5]; at 5 mg/kg s.c.,0%@5
same,block of nicotine-induced hypothermia,male ICR mice [5],failed to block
same,AD50 Tail-flick,male ICR mice [6],1.1 (0.87–1.30) mg/kg
same,α3β4 nH,rat α3β4 nAChRs,0.65
same,IC50,rat α3β4 nAChRs; α3β4 IC50,6.4 µM and 6.35 µM
same,α4β2 nH,[7],1.4
same,IC50,[7]; α4β2 IC50,29 µM
